Test results: patent US4382922A, “Peptides affecting gonadal function” (The Salk Institute for Biological Studies, priority 1982, dated 1983)
Several values for one entry are separate records, joined by “and”; a condition that tells them apart may be missing. Equal values may be shown once.

Test system: dispersed rat pituitary cells
Assay type: cell-based
Conditions: not given
Experimental: The peptides prepared in the foregoing Example I are assayed in vitro using a four-day-old primary culture of dispersed rat pituitary cells and compared with LRF. The levels of LH secreted over a 4-hour period in response to the application of peptides are assayed by specific radioimmunoassay for rat LH. The results of testing are expressed in the tables herebelow: […]

| SMILES | NANOGRAMS OF LH SECRETED/ml. 4 hr. |
| --- | --- |
| CC(C)C[C@H](NC(=O)CNC(=O)[C@H](Cc1ccc(O)cc1)NC(=O)[C@H](CO)NC(=O)[C@H](Cc1c[nH]c2ccccc12)NC(=O)[C@H](Cc1c[nH]cn1)NC(=O)[C@@H]1CCC(=O)N1)C(=O)N[C@@H](CCCNC(=N)N)C(=O)N1CCC[C@H]1C(=O)NCC(N)=O [LRF, p-Glu-His-Trp-Ser-Tyr-Gly-Leu-Arg-Pro-Gly-NH2, reference compound] | 898 and 1240 and 1702 |

Same assay, conditions: in vitro LH release, LRF = 1; confidence limits in parentheses

| SMILES | Potency (relative to LRF) |
| --- | --- |
| CCNC(=O)[C@@H]1CCCN1C(=O)[C@H](CCCNC(=N)N)NC(=O)[C@H](CC(C)C)NC(=O)[C@@H](Cc1c(C)c(C)c(C)c(C)c1C)NC(=O)[C@H](Cc1ccc(O)cc1)NC(=O)[C@H](CO)NC(=O)[C@H](Cc1c[nH]c2ccccc12)NC(=O)[C@H](Cc1c[nH]cn1)NC(=O)[C@@H]1CCC(=O)N1 [Peptide No. 7, [pentamethyl-D-Phe^6, Pro^9 -NEt]-LRF] | 86(50-145) |
| CCNC(=O)[C@@H]1CCCN1C(=O)[C@H](CCCNC(=N)N)NC(=O)[C@H](CC(C)C)NC(=O)[C@@H](Cc1ccc(Cl)cc1)NC(=O)[C@H](Cc1ccc(O)cc1)NC(=O)[C@H](CO)NC(=O)[C@H](Cc1c[nH]c2ccccc12)NC(=O)[C@H](Cc1c[nH]cn1)NC(=O)[C@@H]1CCC(=O)N1 [compound 4] | 59 (29-120) |
| CCNC(=O)[C@@H]1CCCN1C(=O)[C@H](CCCNC(=N)N)NC(=O)[C@H](CC(C)C)NC(=O)[C@@H](Cc1ccc(Cl)c(Cl)c1)NC(=O)[C@H](Cc1ccc(O)cc1)NC(=O)[C@H](CO)NC(=O)[C@H](Cc1c[nH]c2ccccc12)NC(=O)[C@H](Cc1c[nH]cn1)NC(=O)[C@@H]1CCC(=O)N1 [compound 5] | 38 (16-82) |
| CCNC(=O)[C@@H]1CCCN1C(=O)[C@H](CCCNC(=N)N)NC(=O)[C@H](CC(C)C)NC(=O)[C@@H](Cc1ccc(OC)cc1)NC(=O)[C@H](Cc1ccc(O)cc1)NC(=O)[C@H](CO)NC(=O)[C@H](Cc1c[nH]c2ccccc12)NC(=O)[C@H](Cc1c[nH]cn1)NC(=O)[C@@H]1CCC(=O)N1 [Peptide No. 2, [OCH3 -D-Phe^6, Pro^9 -NEt]-LRF] | 130(72-242) |
| CCNC(=O)[C@@H]1CCCN1C(=O)[C@H](CCCNC(=N)N)NC(=O)[C@H](CC(C)C)NC(=O)[C@@H](Cc1ccc(NC(C)=O)cc1)NC(=O)[C@H](Cc1ccc(O)cc1)NC(=O)[C@H](CO)NC(=O)[C@H](Cc1c[nH]c2ccccc12)NC(=O)[C@H](Cc1c[nH]cn1)NC(=O)[C@@H]1CCC(=O)N1 [compound 6] | 36 (21-69) |
| CCNC(=O)[C@@H]1CCCN1C(=O)[C@H](CCCNC(=N)N)NC(=O)[C@H](CC(C)C)NC(=O)[C@@H](Cc1ccccc1)NC(=O)[C@H](Cc1ccc(O)cc1)NC(=O)[C@H](CO)NC(=O)[C@H](Cc1c[nH]c2ccccc12)NC(=O)[C@H](Cc1c[nH]cn1)NC(=O)[C@@H]1CCC(=O)N1 [compound 8] | 78 (46-132) |
| CCNC(=O)[C@@H]1CCCN1C(=O)[C@H](CCCNC(=N)N)NC(=O)[C@H](CC(C)C)NC(=O)[C@@H](Cc1c(C)c(C)c(C)c(C)c1C)NC(=O)[C@H](Cc1ccc(O)cc1)NC(=O)[C@H](CO)NC(=O)[C@H](Cc1c[nH]c2ccccc12)NC(=O)[C@H](Cc1c[nH]cn1)NC(=O)[C@@H]1CCC(=O)N1 [[pentamethyl-D-Phe^6, Pro^9 -NEt]-LRF] | about 86 |
| CCNC(=O)[C@@H]1CCCN1C(=O)[C@H](CCCNC(=N)N)NC(=O)[C@H](CC(C)C)NC(=O)[C@@H](Cc1ccc(OC)cc1)NC(=O)[C@H](Cc1ccc(O)cc1)NC(=O)[C@H](CO)NC(=O)[C@H](Cc1c[nH]c2ccccc12)NC(=O)[C@H](Cc1c[nH]cn1)NC(=O)[C@@H]1CCC(=O)N1 [[OCH3 -D-Phe^6, Pro^9 -NEt]-LRF] | about 130 |
| CCNC(=O)[C@@H]1CCCN1C(=O)[C@H](CCCNC(=N)N)NC(=O)[C@H](CC(C)C)NC(=O)[C@@H](Cc1ccc(C)cc1)NC(=O)[C@H](Cc1ccc(O)cc1)NC(=O)[C@H](CO)NC(=O)[C@H](Cc1c[nH]c2ccccc12)NC(=O)[C@H](Cc1c[nH]cn1)NC(=O)[C@@H]1CCC(=O)N1 [compound 3] | 143 (79-268) |
| CCNC(=O)[C@@H]1CCCN1C(=O)[C@H](CCCNC(=N)N)NC(=O)[C@H](CC(C)C)NC(=O)[C@@H](Cc1ccc([N+](=O)[O-])cc1)NC(=O)[C@H](Cc1ccc(O)cc1)NC(=O)[C@H](CO)NC(=O)[C@H](Cc1c[nH]c2ccccc12)NC(=O)[C@H](Cc1c[nH]cn1)NC(=O)[C@@H]1CCC(=O)N1 [compound 1, [pNO2 -D-Phe^6, Pro^9 -NEt]-LRF] | 141 (83-297) |
